Molecules are shown by their SMILES. Values after ≈ are worked out from the molar mass of the structure shown.

What all share (format): functional
Assay [1] concerns Staphylococcus aureus. Description: Antimicrobial activity against Staphylococcus aureus ATCC 29213 after 24 hr by serial microdilution method. The settings on record: ATCC 29213, 24 h.
For assay [2], the system named is Cyberlindnera jadinii. Briefly: Antimicrobial activity against Cyberlindnera jadinii KUEN 1031 serial microdilution method. The conditions noted are these: Williopsis jadinii.
Assay [3] relates to Bacillus subtilis. Description: Antimicrobial activity against Bacillus subtilis ATCC 6633 at 105 ug/disk after 24 hr by disk diffusion method. The settings on record: ATCC 6633, 24 h, read-out: IZ. (In general: A growth-free zone around the sample is the usual read-out of agar diffusion tests.)
The test system of assay [4] is Proteus vulgaris. Briefly: Antimicrobial activity against Proteus vulgaris KUEN 1329 at 105 ug/disk after 24 hr by disk diffusion method. The settings on record: KUEN 1329, 24 h, read-out: IZ.
Assay [5] deals with Bacillus cereus. Briefly: Antimicrobial activity against Bacillus cereus DSM 4312 after 24 hr by serial microdilution method. The conditions noted are these: DSM 4312, 24 h. For orientation: In broth dilution the organism is exposed to a series of concentrations in liquid medium.
Assay [6] has as its system Salmonella enteritidis. Description: Antimicrobial activity against Salmonella enterica subsp. enterica serovar Enteritidis ATCC 13076 at 105 ug/disk after 24 hr by disk diffusion method. The conditions noted are these: ATCC 13076, 24 h, read-out: IZ.
The test system of assay [7] is Pseudomonas aeruginosa. Briefly: Antimicrobial activity against Pseudomonas aeruginosa ATCC 9027 after 24 hr by serial microdilution method. The conditions noted are these: ATCC 9027, 24 h.
Assay [8] has as its system Candida albicans. Description: Antimicrobial activity against Candida albicans ATCC 1213 at 105 ug/disk after 48 hr by disk diffusion method. The conditions noted are these: ATCC 1213, 48 h, read-out: IZ.
Assay [9] concerns Bacillus subtilis. Description: Antimicrobial activity against Bacillus subtilis ATCC 6633 after 24 hr by serial microdilution method. The conditions noted are these: ATCC 6633, 24 h.
The test system of assay [10] is Candida albicans. Briefly: Antimicrobial activity against Candida albicans ATCC 1213 by serial microdilution method.
The subject of assay [11] is Escherichia coli. Description: Antimicrobial activity against Escherichia coli 111 after 24 hr by serial microdilution method. The conditions noted are these: Escherichia coli, 111, 24 h.
Assay [12] deals with Pseudomonas aeruginosa. Briefly: Antimicrobial activity against Pseudomonas aeruginosa ATCC 27859 after 24 hr by serial microdilution method. The settings on record: ATCC 27859, 24 h.
For assay [13], the system named is Escherichia coli. Description: Antimicrobial activity against Escherichia coli 111 at 105 ug/disk after 24 hr by disk diffusion method. The settings on record: Escherichia coli, 111, 24 h; read-out: IZ.
Assay [14] concerns Salmonella enteritidis. Description: Antimicrobial activity against Salmonella enterica subsp. enterica serovar Enteritidis ATCC 13076 after 24 hr by serial microdilution method. The settings on record: ATCC 13076, 24 h.
In assay [15] the test system is Streptococcus pyogenes. Description: Antimicrobial activity against Streptococcus pyogenes ATCC 176 after 24 hr by serial microdilution method. The settings on record: ATCC 176, 24 h.
For assay [16], the system named is Cyberlindnera jadinii. Description: Antimicrobial activity against Cyberlindnera jadinii KUEN 1031 at 105 ug/disc after 48 hr by disk diffusion method. The conditions noted are these: Williopsis jadinii, KUEN 1031, 48 h; read-out: IZ.
Assay [17] deals with Proteus vulgaris. Briefly: Antimicrobial activity against Proteus vulgaris KUEN 1329 after 24 hr by serial microdilution method. The conditions noted are these: KUEN 1329, 24 h.
Assay [18] deals with Streptococcus pyogenes. Briefly: Antimicrobial activity against Streptococcus pyogenes ATCC 176 at 105 ug/disc after 24 hr by disc diffusion method. The settings on record: ATCC 176, 24 h, read-out: IZ.
For assay [19], the system named is Pseudomonas aeruginosa. Briefly: Antimicrobial activity against Pseudomonas aeruginosa ATCC 9027 at 105 ug/disk after 24 hr by disk diffusion method. The conditions noted are these: ATCC 9027, 24 h, read-out: IZ.
Assay [20] deals with Staphylococcus aureus. Description: Antimicrobial activity against Staphylococcus aureus ATCC 29213 at 105 ug/disc after 24 hr by disk diffusion method. The settings on record: ATCC 29213, 24 h, read-out: IZ.
For assay [21], the system named is Bacillus cereus. Description: Antimicrobial activity against Bacillus cereus DSM 4312 at 105 ug/disk after 24 hr by disk diffusion method. The settings on record: DSM 4312, 24 h, read-out: IZ.
Assay [22] relates to Pseudomonas aeruginosa. Briefly: Antimicrobial activity against Pseudomonas aeruginosa ATCC 27859 at 105 ug/disk after 24 hr by disk diffusion method. The conditions noted are these: ATCC 27859, 24 h, read-out: IZ.

As to `COc1cccc(C(=O)CC(Sc2ccccc2)c2ccco2)c1` (stereo not given), the minimal inhibitory concentration (MIC) is > 125 µg/mL against Staphylococcus aureus [1]; 15.6 µg/mL (≈ 46.2 µM) against Cyberlindnera jadinii [2]; 62.5 µg/mL (≈ 185 µM) with Bacillus cereus [5]; > 125 µg/mL against Pseudomonas aeruginosa [7]; 62.5 µg/mL (≈ 185 µM) with Bacillus subtilis [9]; 15.6 µg/mL (≈ 46.2 µM) in the assay on Candida albicans [10]. The minimum inhibitory concentration (MIC) is 31.2 µg/mL (≈ 92.3 µM) in the assay on Escherichia coli [11]; 125 µg/mL (≈ 369 µM) in the assay on Pseudomonas aeruginosa [12]; 62.5 µg/mL (≈ 185 µM) in the assay with Salmonella enteritidis [14]; 7.81 µg/mL (≈ 23.1 µM) against Streptococcus pyogenes [15]; 31.2 µg/mL (≈ 92.3 µM) against Proteus vulgaris [17]. Moreover, the zone of inhibition at 105 µg/disc in the assay on Bacillus subtilis [3] was found to be 12 mm; with Proteus vulgaris [4], 14 mm; in the assay with Salmonella enteritidis [6] it was 17 mm; in the assay with Candida albicans [8], 17 mm; in the assay with Escherichia coli [13], 14 mm; with Cyberlindnera jadinii [16], 13 mm.

With `COc1ccc(C(=O)CC(Sc2ccccc2)c2ccco2)cc1` (stereo not given), the MIC in the assay with Staphylococcus aureus [1] is > 125 µg/mL; with Cyberlindnera jadinii [2], 125 µg/mL (≈ 369 µM); against Bacillus cereus [5], 62.5 µg/mL (≈ 185 µM); with Pseudomonas aeruginosa [7] it was 62.5 µg/mL (≈ 185 µM); against Bacillus subtilis [9], 125 µg/mL (≈ 369 µM); with Candida albicans [10] it was > 125 µg/mL. In addition, the MIC was 62.5 µg/mL (≈ 185 µM) in the assay with Escherichia coli [11]; 62.5 µg/mL (≈ 185 µM) against Pseudomonas aeruginosa [12]; > 125 µg/mL in the assay with Salmonella enteritidis [14]; > 125 µg/mL in the assay with Streptococcus pyogenes [15]; 62.5 µg/mL (≈ 185 µM) in the assay on Proteus vulgaris [17]. Besides, the zone of inhibition at 105 µg/disc was determined as 13 mm in the assay on Streptococcus pyogenes [18]; 13 mm in the assay on Pseudomonas aeruginosa [19]; 12 mm with Candida albicans [8]; 10 mm in the assay with Escherichia coli [13]; 12 mm in the assay on Cyberlindnera jadinii [16].

`O=C(CC(Sc1ccccc1)c1ccco1)c1ccccc1Cl` (stereo not given): the zone of inhibition at 105 µg/disc with Staphylococcus aureus [20] was found to be 18 mm; in the assay with Bacillus subtilis [3], 15 mm; with Proteus vulgaris [4], 16 mm; in the assay with Bacillus cereus [21], 11 mm; with Salmonella enteritidis [6] it was 18 mm; in the assay on Pseudomonas aeruginosa [19], 14 mm. Further, the zone of inhibition at 105 µg/disc in the assay on Candida albicans [8] stood at 16 mm; with Cyberlindnera jadinii [16], 13 mm; with Pseudomonas aeruginosa [22] it was 14 mm. For the same molecule, the MIC against Staphylococcus aureus [1] was determined as 7.81 µg/mL (≈ 22.8 µM); in the assay on Cyberlindnera jadinii [2] it was 125 µg/mL (≈ 365 µM); against Bacillus cereus [5], 31.2 µg/mL (≈ 91.1 µM); with Pseudomonas aeruginosa [7], 31.2 µg/mL (≈ 91.1 µM); in the assay on Bacillus subtilis [9], 31.2 µg/mL (≈ 91.1 µM); against Candida albicans [10], 15.6 µg/mL (≈ 45.6 µM). Also, the minimal inhibitory concentration (MIC) against Escherichia coli [11] is > 125 µg/mL; in the assay on Pseudomonas aeruginosa [12], 125 µg/mL (≈ 365 µM); against Salmonella enteritidis [14], 15.6 µg/mL (≈ 45.6 µM); against Streptococcus pyogenes [15], 15.6 µg/mL (≈ 45.6 µM); in the assay with Proteus vulgaris [17], 31.2 µg/mL (≈ 91.1 µM).

On to `O=C(CC(Sc1ccccc1)c1ccco1)c1ccc(Cl)cc1` (stereo not given), for which the MIC in the assay on Staphylococcus aureus [1] was > 125 µg/mL; against Cyberlindnera jadinii [2], 62.5 µg/mL (≈ 182 µM); with Bacillus cereus [5] it was 31.2 µg/mL (≈ 91.1 µM); against Pseudomonas aeruginosa [7], > 125 µg/mL; in the assay with Bacillus subtilis [9], > 125 µg/mL; with Candida albicans [10], 62.5 µg/mL (≈ 182 µM). Further, the MIC in the assay on Escherichia coli [11] is 62.5 µg/mL (≈ 182 µM); in the assay with Pseudomonas aeruginosa [12] it was > 125 µg/mL; with Salmonella enteritidis [14], 62.5 µg/mL (≈ 182 µM); with Streptococcus pyogenes [15] it was 125 µg/mL (≈ 365 µM); in the assay on Proteus vulgaris [17], 7.81 µg/mL (≈ 22.8 µM). In addition, the zone of inhibition at 105 µg/disc came out at 13 mm in the assay on Streptococcus pyogenes [18]; 14 mm in the assay on Proteus vulgaris [4]; 10 mm in the assay on Bacillus cereus [21]; 17 mm in the assay with Salmonella enteritidis [6]; 15 mm with Pseudomonas aeruginosa [19]; 14 mm in the assay on Candida albicans [8]. For the same molecule, the zone of inhibition at 105 µg/disc with Escherichia coli [13] worked out at 10 mm; with Cyberlindnera jadinii [16], 14 mm.

Take `O=C(CC(Sc1ccccc1)c1ccco1)c1cccc(Br)c1` (stereo not given): the zone of inhibition at 105 µg/disc was 16 mm with Staphylococcus aureus [20]; 15 mm in the assay on Proteus vulgaris [4]; 13 mm with Bacillus cereus [21]; 16 mm in the assay on Salmonella enteritidis [6]; 16 mm in the assay with Pseudomonas aeruginosa [19]; 16 mm in the assay with Candida albicans [8]. The zone of inhibition at 105 µg/disc in the assay on Cyberlindnera jadinii [16] came out at 14 mm. Besides, the minimal inhibitory concentration (MIC) with Staphylococcus aureus [1] was 15.6 µg/mL (≈ 40.3 µM); against Cyberlindnera jadinii [2] it was > 125 µg/mL; against Bacillus cereus [5], 31.2 µg/mL (≈ 80.7 µM); in the assay on Pseudomonas aeruginosa [7], 15.6 µg/mL (≈ 40.3 µM); in the assay on Bacillus subtilis [9] it was 31.2 µg/mL (≈ 80.7 µM); in the assay with Candida albicans [10] it was > 125 µg/mL. Further, the MIC in the assay on Escherichia coli [11] was > 125 µg/mL; with Pseudomonas aeruginosa [12], > 125 µg/mL; in the assay with Salmonella enteritidis [14] it was 31.2 µg/mL (≈ 80.7 µM); with Streptococcus pyogenes [15], 31.2 µg/mL (≈ 80.7 µM); against Proteus vulgaris [17] it was 31.2 µg/mL (≈ 80.7 µM).

One may read the MIC as the least concentration at which growth counts as inhibited. Lower therefore signals greater potency.

The values are drawn from ChEMBL document CHEMBL3046841, “The synthesis and screening of the antimicrobial activity of some novel 3-(furan-2-yl)-1-(aryl)-3-(phenylthio) propan-1-one derivatives” (2011).
